Article PMC9226124, “Macrocycle-stabilization of its interaction with 14-3-3 increases plasma membrane localization and activity of CFTR” (Nature Communications, 2022)
Where “and” joins values, the source holds several entries; their conditions need not be identical. Equal values may be shown once. Read-outs that look alike come from different tables or passages of the source. One block for each compound: values may come before it.

How the values were obtained:
[1] = target: T1, 3HA-tagged F508del-CFTR in BHK cells (Homo sapiens, UniProt P13569, DEL508-508); experiment: CFTR trafficking assay (surface expression); type: cell-based, hamster; settings: individual replicates
T1 construct: expressed in transfected cells; host or cells: baby hamster kidney (BHK) cells (Carlile et al. 2007)
How it was run: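 BHK cells expressing 3HA-tagged F508del-CFTR treated 24 h with 10 μM compound (1% DMSO final), fixed, stained with anti-HA plus FITC-conjugated anti-mouse IgG. Fluorescence (488/510 nm) background-subtracted and normalized to DMSO control and wt-CFTR-expressing cells.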

[2] = target: T2, 14-3-3β/CFTRpS753pS768 complex (Homo sapiens, UniProt P13569+P31946); experiment: Dose-response fluorescence polarization (FP) assay, compound titration; type: binding; settings: for EC50: 14-3-3β 10 μM, labeled CFTRpS753pS768 100 nM; for FP signal: With 14-3-3
T2 construct: His6 (cleaved yes); made in house; peptide synthetic
How it was run: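 Compounds were titrated in two-fold dilutions against 10 μM 14-3-3β and FITC-CFTR pS753pS768 peptide (100 nM or 10 nM). Buffer: 10 mM HEPES pH 7.4, 150 mM NaCl, 0.1% Tween20, 1 mg/mL BSA. Polarization was read at ex 485/em 535 nm, and EC50 was derived from a four-parameter variable-slope fit.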

T2 sequence (P31946 whole entry): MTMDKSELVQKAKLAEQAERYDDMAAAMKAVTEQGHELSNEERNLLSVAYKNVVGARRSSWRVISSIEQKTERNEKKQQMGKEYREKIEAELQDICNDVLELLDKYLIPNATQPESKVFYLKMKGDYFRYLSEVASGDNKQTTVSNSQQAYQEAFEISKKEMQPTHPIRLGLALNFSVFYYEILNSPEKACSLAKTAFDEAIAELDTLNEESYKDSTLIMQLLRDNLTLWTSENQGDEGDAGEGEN
T2 sequence (P13569 747-774 limits assumed): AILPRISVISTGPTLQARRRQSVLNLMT
T1 sequence (P13569 with tags, fused parts or gaps DEL508-508): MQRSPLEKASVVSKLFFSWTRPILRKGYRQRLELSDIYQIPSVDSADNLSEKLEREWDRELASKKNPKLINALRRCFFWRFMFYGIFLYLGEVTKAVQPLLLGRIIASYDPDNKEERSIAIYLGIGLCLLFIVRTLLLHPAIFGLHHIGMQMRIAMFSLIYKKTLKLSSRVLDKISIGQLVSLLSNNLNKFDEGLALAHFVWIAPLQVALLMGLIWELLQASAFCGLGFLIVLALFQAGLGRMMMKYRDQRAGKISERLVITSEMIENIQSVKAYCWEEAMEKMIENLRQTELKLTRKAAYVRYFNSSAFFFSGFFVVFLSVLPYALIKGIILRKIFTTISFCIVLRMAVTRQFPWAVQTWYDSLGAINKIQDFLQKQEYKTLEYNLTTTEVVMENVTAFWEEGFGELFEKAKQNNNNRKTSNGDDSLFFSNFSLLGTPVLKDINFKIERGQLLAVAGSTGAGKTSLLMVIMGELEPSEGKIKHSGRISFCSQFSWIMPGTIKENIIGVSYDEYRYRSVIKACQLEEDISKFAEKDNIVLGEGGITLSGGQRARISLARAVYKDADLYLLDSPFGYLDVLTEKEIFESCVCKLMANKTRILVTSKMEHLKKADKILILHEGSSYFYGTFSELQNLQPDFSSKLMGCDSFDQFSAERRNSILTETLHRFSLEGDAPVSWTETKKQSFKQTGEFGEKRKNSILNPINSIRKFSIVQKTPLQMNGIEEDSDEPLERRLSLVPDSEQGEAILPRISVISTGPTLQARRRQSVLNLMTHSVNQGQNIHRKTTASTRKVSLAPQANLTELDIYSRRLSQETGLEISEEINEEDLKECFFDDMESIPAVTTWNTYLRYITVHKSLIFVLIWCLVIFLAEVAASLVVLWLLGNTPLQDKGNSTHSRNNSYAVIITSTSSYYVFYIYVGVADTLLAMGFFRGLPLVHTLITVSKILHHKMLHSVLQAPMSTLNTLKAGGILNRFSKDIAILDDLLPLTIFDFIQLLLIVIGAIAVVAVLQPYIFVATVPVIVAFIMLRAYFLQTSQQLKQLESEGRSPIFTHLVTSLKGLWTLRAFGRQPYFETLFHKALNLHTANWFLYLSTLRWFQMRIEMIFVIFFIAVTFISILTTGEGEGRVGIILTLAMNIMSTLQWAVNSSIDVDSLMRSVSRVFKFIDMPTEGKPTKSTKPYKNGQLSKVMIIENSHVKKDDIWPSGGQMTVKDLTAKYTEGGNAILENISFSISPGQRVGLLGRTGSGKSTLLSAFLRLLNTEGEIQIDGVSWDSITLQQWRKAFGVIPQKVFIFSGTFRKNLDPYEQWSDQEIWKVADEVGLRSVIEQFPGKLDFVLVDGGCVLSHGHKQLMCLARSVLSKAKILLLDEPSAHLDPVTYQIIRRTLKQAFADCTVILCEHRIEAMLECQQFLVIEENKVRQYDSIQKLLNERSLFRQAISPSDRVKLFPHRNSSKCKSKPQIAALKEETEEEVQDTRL

EC50 ([2]; read-out: EC50): 637 µM
FP signal ([2]; compound 324.2 pM): 2
FP signal ([2]; compound 648.5 pM): 1
FP signal ([2]; compound 1.297e-9 M): 2
FP signal ([2]; compound 2.59399e-9 M): 3
FP signal ([2]; compound 5.18799e-9 M): 3
FP signal ([2]; compound 1.0376e-8 M): 3
FP signal ([2]; compound 2.0752e-8 M): 3
FP signal ([2]; compound 4.15039e-8 M): 3
FP signal ([2]; compound 8.30078e-8 M): 2
FP signal ([2]; compound 1.66016e-7 M): 5
FP signal ([2]; compound 3.32031e-7 M): 4
FP signal ([2]; compound 6.64062e-7 M): 3
FP signal ([2]; compound 1.32813e-6 M): 4
FP signal ([2]; compound 2.65625e-6 M): 5
FP signal ([2]; compound 5.3125e-6 M): 6
FP signal ([2]; compound 1.0625e-5 M): 4
FP signal ([2]; compound 2.125e-5 M): 10
FP signal ([2]; compound 4.25e-5 M): 18
FP signal ([2]; compound 8.5e-5 M): 37
FP signal ([2]; compound 0.00034 M): 117
FP signal ([2]; compound 0.00068 M): 184
FP signal ([2]; compound […]): 71
Structure (SMILES): N=C(N)NCCCC1NC(=O)C(CCC(N)=O)NC(=O)C(CCCNC(=N)N)NC(=O)C2Cc3ccccc3CN2Cc2cccc(c2)-c2ccccc2CNC1=O (stereo not drawn) [CY007493]
F508del-CFTR surface expression signal (Fig5a) [1]: 225.716 and 325.901 and 303.406 and 383.168

EC50 [2]: False positive
FP signal ([2]; compound 476.8 pM): 5
FP signal ([2]; compound 953.7 pM): 5
FP signal ([2]; compound 1.90735e-9 M): 4
FP signal ([2]; compound 3.8147e-9 M): 7
FP signal ([2]; compound 7.6294e-9 M): 5
FP signal ([2]; compound 1.52588e-8 M): 4
FP signal ([2]; compound 3.05176e-8 M): 4
FP signal ([2]; compound 6.10352e-8 M): 7
FP signal ([2]; compound 1.2207e-7 M): 6
FP signal ([2]; compound 2.44141e-7 M): 5
FP signal ([2]; compound 4.88281e-7 M): 6
FP signal ([2]; compound 9.76563e-7 M): 7
FP signal ([2]; compound 1.95313e-6 M): 8
FP signal ([2]; compound 3.90625e-6 M): 14
FP signal ([2]; compound 7.8125e-6 M): 28
FP signal ([2]; compound 1.5625e-5 M): 52
FP signal ([2]; compound 3.125e-5 M): 90
FP signal ([2]; compound 6.25e-5 M): 137
FP signal ([2]; compound 0.000125 M): 191
FP signal ([2]; compound 0.00025 M): 224
FP signal ([2]; compound 0.0005 M): 238
FP signal ([2]; compound 0.001 M): 248
Structure (SMILES): NCCCC1NCc2ccccc2Sc2ccccc2CNC(=O)C(Cc2c[nH]c3ccccc23)NC(=O)C(Cc2ccccc2)NC1=O (stereo not drawn) [CY007345]
F508del-CFTR surface expression signal (Fig5a) [1]: -42.2555 and -20.6074 and 61.7766 and 72.7311
